Measurements from ChEMBL document CHEMBL4418490, “N-(heteroaryl)-sulfonamide derivatives useful as s100-inhibitors” (2018).
Each block holds one compound with its values, some of them ahead of it. Calls of active or inactive are those of the source. The calls are words filed in the database; no cut-off is given here.

How the values were obtained:
MC-38 = test: Antitumor activity against C215 transfected MC38 cells implanted in C57BL/6 mouse assessed as inhibition of tumor growth at 30 mg/kg, po dosed daily for 15 days starting following day of tumor inoculation; assay type: functional, organism-based
[1] = Plasma concentration in C215 transfected MC38 cells implanted C57BL/6 mouse at 5 mg/kg, po dosed as cassette formulation and measured at 1 hr after post dose by LC-MS analysis; assay type: ADME, organism-based
[2] = Plasma concentration in C215 transfected MC38 cells implanted C57BL/6 mouse at 1 mg/kg, iv dosed as cassette formulation and measured at 1 hr after post dose by LC-MS analysis; assay type: ADME, organism-based
[3] = Plasma concentration in C215 transfected MC38 cells implanted C57BL/6 mouse at 1 mg/kg, iv dosed as cassette formulation and measured at 4 hrs after post dose by LC-MS analysis; assay type: ADME, organism-based
[4] = Plasma concentration in C215 transfected MC38 cells implanted C57BL/6 mouse assessed as N-(5-chloro-3-hydroxypyridin-2-yl)-1-(3,5-dichlorophenyl)methanesulfonamide level at 5 mg/kg, po dosed as cassette formulation and measured at 7 hrs after post dose by LC-MS analysis; assay type: ADME, organism-based; conditions: in vivo
[5] = Plasma concentration in C215 transfected MC38 cells implanted C57BL/6 mouse at 1 mg/kg, iv dosed as cassette formulation and measured at 0.083 hrs after post dose by LC-MS analysis; assay type: ADME, organism-based
[6] = Plasma concentration in C215 transfected MC38 cells implanted C57BL/6 mouse assessed as N-(5-chloro-3-hydroxypyridin-2-yl)-1-(3,5-dichlorophenyl)methanesulfonamide level at 1 mg/kg, iv dosed as cassette formulation and measured at 1 hr after post dose by LC-MS analysis; assay type: ADME, organism-based; conditions: in vivo
[7] = Plasma concentration in C215 transfected MC38 cells implanted C57BL/6 mouse assessed as N-(5-chloro-3-hydroxypyridin-2-yl)-1-(3,5-dichlorophenyl)methanesulfonamide level at 1 mg/kg, iv dosed as cassette formulation and measured at 0.083 hrs after post dose by LC-MS analysis; assay type: ADME, organism-based; conditions: in vivo
[8] = Plasma concentration in C215 transfected MC38 cells implanted C57BL/6 mouse at 5 mg/kg, po dosed as cassette formulation and measured at 7 hrs after post dose by LC-MS analysis; assay type: ADME, organism-based
[9] = Plasma concentration in C215 transfected MC38 cells implanted C57BL/6 mouse assessed as N-(5-chloro-3-hydroxypyridin-2-yl)-1-(3,5-dichlorophenyl)methanesulfonamide level at 5 mg/kg, po dosed as cassette formulation and measured at 0.5 hrs after post dose by LC-MS analysis; assay type: ADME, organism-based; conditions: in vivo
[10] = Plasma concentration in C215 transfected MC38 cells implanted C57BL/6 mouse assessed as N-(5-chloro-3-hydroxypyridin-2-yl)-1-(3,5-dichlorophenyl)methanesulfonamide level at 1 mg/kg, iv dosed as cassette formulation and measured at 4 hrs after post dose by LC-MS analysis; assay type: ADME, organism-based; conditions: in vivo
[11] = Plasma concentration in C215 transfected MC38 cells implanted C57BL/6 mouse at 5 mg/kg, po dosed as cassette formulation and measured at 2 hrs after post dose by LC-MS analysis; assay type: ADME, organism-based
[12] = Plasma concentration in C215 transfected MC38 cells implanted C57BL/6 mouse at 1 mg/kg, iv dosed as cassette formulation and measured at 0.5 hrs after post dose by LC-MS analysis; assay type: ADME, organism-based
[13] = Plasma concentration in C215 transfected MC38 cells implanted C57BL/6 mouse assessed as N-(5-chloro-3-hydroxypyridin-2-yl)-1-(3,5-dichlorophenyl)methanesulfonamide level at 1 mg/kg, iv dosed as cassette formulation and measured at 0.5 hrs after post dose by LC-MS analysis; assay type: ADME, organism-based; conditions: in vivo
[14] = Plasma concentration in C215 transfected MC38 cells implanted C57BL/6 mouse assessed as N-(5-chloro-3-hydroxypyridin-2-yl)-1-(3,5-dichlorophenyl)methanesulfonamide level at 5 mg/kg, po dosed as cassette formulation and measured at 2 hrs after post dose by LC-MS analysis; assay type: ADME, organism-based; conditions: in vivo
[15] = Plasma concentration in C215 transfected MC38 cells implanted C57BL/6 mouse at 1 mg/kg, iv dosed as cassette formulation and measured at 7 hrs after post dose by LC-MS analysis; assay type: ADME, organism-based
[16] = Plasma concentration in C215 transfected MC38 cells implanted C57BL/6 mouse assessed as N-(5-chloro-3-hydroxypyridin-2-yl)-1-(3,5-dichlorophenyl)methanesulfonamide level at 1 mg/kg, iv dosed as cassette formulation and measured at 2 hrs after post dose by LC-MS analysis; assay type: ADME, organism-based; conditions: in vivo
[17] = Plasma concentration in C215 transfected MC38 cells implanted C57BL/6 mouse assessed as N-(5-chloro-3-hydroxypyridin-2-yl)-1-(3,5-dichlorophenyl)methanesulfonamide level at 5 mg/kg, po dosed as cassette formulation and measured at 1 hr after post dose by LC-MS analysis; assay type: ADME, organism-based; conditions: in vivo
[18] = Plasma concentration in C215 transfected MC38 cells implanted C57BL/6 mouse assessed as N-(5-chloro-3-hydroxypyridin-2-yl)-1-(3,5-dichlorophenyl)methanesulfonamide level at 5 mg/kg, po dosed as cassette formulation and measured at 4 hrs after post dose by LC-MS analysis; assay type: ADME, organism-based; conditions: in vivo
[19] = Plasma concentration in C215 transfected MC38 cells implanted C57BL/6 mouse assessed as N-(5-chloro-3-hydroxypyridin-2-yl)-1-(3,5-dichlorophenyl)methanesulfonamide level at 1 mg/kg, iv dosed as cassette formulation and measured at 7 hrs after post dose by LC-MS analysis; assay type: ADME, organism-based; conditions: in vivo
[20] = Plasma concentration in C215 transfected MC38 cells implanted C57BL/6 mouse at 5 mg/kg, po dosed as cassette formulation and measured at 0.5 hrs after post dose by LC-MS analysis; assay type: ADME, organism-based
[21] = Plasma concentration in C215 transfected MC38 cells implanted C57BL/6 mouse at 1 mg/kg, iv dosed as cassette formulation and measured at 2 hrs after post dose by LC-MS analysis; assay type: ADME, organism-based
[22] = Plasma concentration in C215 transfected MC38 cells implanted C57BL/6 mouse at 5 mg/kg, po dosed as cassette formulation and measured at 4 hrs after post dose by LC-MS analysis; assay type: ADME, organism-based
[23] = Plasma concentration in C215 transfected MC38 cells implanted C57BL/6 mouse assessed as 2,5-dichloro-N-(6-chloro-4-hydroxypyridin-3-yl)thiophene-3-sulfonamide level at 5 mg/kg, po dosed as cassette formulation and measured at 7 hrs after post dose by LC-MS analysis; assay type: ADME, organism-based; conditions: in vivo
[24] = Plasma concentration in C215 transfected MC38 cells implanted C57BL/6 mouse assessed as 2,5-dichloro-N-(6-chloro-4-hydroxypyridin-3-yl)thiophene-3-sulfonamide level at 1 mg/kg, iv dosed as cassette formulation and measured at 4 hrs after post dose by LC-MS analysis; assay type: ADME, organism-based; conditions: in vivo
[25] = Plasma concentration in C215 transfected MC38 cells implanted C57BL/6 mouse assessed as 2,5-dichloro-N-(6-chloro-4-hydroxypyridin-3-yl)thiophene-3-sulfonamide level at 5 mg/kg, po dosed as cassette formulation and measured at 1 hr after post dose by LC-MS analysis; assay type: ADME, organism-based; conditions: in vivo
[26] = Plasma concentration in C215 transfected MC38 cells implanted C57BL/6 mouse assessed as 2,5-dichloro-N-(6-chloro-4-hydroxypyridin-3-yl)thiophene-3-sulfonamide level at 5 mg/kg, po dosed as cassette formulation and measured at 4 hrs after post dose by LC-MS analysis; assay type: ADME, organism-based; conditions: in vivo
[27] = Plasma concentration in C215 transfected MC38 cells implanted C57BL/6 mouse assessed as 2,5-dichloro-N-(6-chloro-4-hydroxypyridin-3-yl)thiophene-3-sulfonamide level at 1 mg/kg, iv dosed as cassette formulation and measured at 1 hr after post dose by LC-MS analysis; assay type: ADME, organism-based; conditions: in vivo
[28] = Plasma concentration in C215 transfected MC38 cells implanted C57BL/6 mouse assessed as 2,5-dichloro-N-(6-chloro-4-hydroxypyridin-3-yl)thiophene-3-sulfonamide level at 5 mg/kg, po dosed as cassette formulation and measured at 2 hrs after post dose by LC-MS analysis; assay type: ADME, organism-based; conditions: in vivo
[29] = Plasma concentration in C215 transfected MC38 cells implanted C57BL/6 mouse assessed as 2,5-dichloro-N-(6-chloro-4-hydroxypyridin-3-yl)thiophene-3-sulfonamide level at 1 mg/kg, iv dosed as cassette formulation and measured at 0.5 hrs after post dose by LC-MS analysis; assay type: ADME, organism-based; conditions: in vivo
[30] = Plasma concentration in C215 transfected MC38 cells implanted C57BL/6 mouse assessed as 2,5-dichloro-N-(6-chloro-4-hydroxypyridin-3-yl)thiophene-3-sulfonamide level at 1 mg/kg, iv dosed as cassette formulation and measured at 0.083 hrs after post dose by LC-MS analysis; assay type: ADME, organism-based; conditions: in vivo
[31] = Plasma concentration in C215 transfected MC38 cells implanted C57BL/6 mouse assessed as 2,5-dichloro-N-(6-chloro-4-hydroxypyridin-3-yl)thiophene-3-sulfonamide level at 5 mg/kg, po dosed as cassette formulation and measured at 0.5 hrs after post dose by LC-MS analysis; assay type: ADME, organism-based; conditions: in vivo
[32] = Plasma concentration in C215 transfected MC38 cells implanted C57BL/6 mouse assessed as 2,5-dichloro-N-(6-chloro-4-hydroxypyridin-3-yl)thiophene-3-sulfonamide level at 1 mg/kg, iv dosed as cassette formulation and measured at 2 hrs after post dose by LC-MS analysis; assay type: ADME, organism-based; conditions: in vivo
[33] = Plasma concentration in C215 transfected MC38 cells implanted C57BL/6 mouse assessed as 2,5-dichloro-N-(6-chloro-4-hydroxypyridin-3-yl)thiophene-3-sulfonamide level at 1 mg/kg, iv dosed as cassette formulation and measured at 7 hrs after post dose by LC-MS analysis; assay type: ADME, organism-based; conditions: in vivo

Compound: O=S(=O)(Nc1cnccc1O)c1cc(Cl)sc1Cl
TGI (MC-38): Active

concentration at 1 h [1]: 1600 nM
concentration at 1 h [2]: 84 nM
concentration at 4 h [3]: 170 nM
concentration [4]: 19 nM
concentration at 0.083 h [5]: 6300 nM
concentration [6]: 3 nM
concentration [7]: 44 nM
concentration at 7 h [8]: 700 nM
concentration [9]: 45 nM
concentration [10]: 4 nM
concentration at 2 h [11]: 1300 nM
concentration at 0.5 h [12]: 550 nM
concentration [13]: 5 nM
concentration [14]: 21 nM
concentration at 7 h [15]: 150 nM
concentration [16]: 6 nM
concentration [17]: 26 nM
concentration [18]: 12 nM
concentration [19]: 4 nM
concentration at 0.5 h [20]: 3600 nM
concentration at 2 h [21]: 380 nM
concentration at 4 h [22]: 850 nM
Compound: COc1cc(Cl)cnc1NS(=O)(=O)Cc1cc(Cl)cc(Cl)c1

concentration at 1 h [1]: 91600 nM
concentration at 1 h [2]: 23700 nM
concentration [23]: 780 nM
concentration [24]: 180 nM
concentration at 4 h [3]: 7800 nM
concentration [25]: 490 nM
concentration [26]: 610 nM
concentration [27]: 190 nM
concentration at 0.083 h [5]: 32200 nM
concentration at 7 h [8]: 50300 nM
concentration [28]: 690 nM
concentration [29]: 200 nM
concentration [30]: 89 nM
concentration at 2 h [11]: 109000 nM
concentration at 0.5 h [12]: 19300 nM
concentration [31]: 460 nM
concentration [32]: 210 nM
concentration at 7 h [15]: 2500 nM
concentration [33]: 130 nM
concentration at 0.5 h [20]: 86800 nM
concentration at 2 h [21]: 17500 nM
concentration at 4 h [22]: 47100 nM
Compound: COc1cc(Cl)ncc1NS(=O)(=O)c1cc(Cl)sc1Cl
